Results published in patent publication US4820715A, “Anti-emetic quinuclidinyl benzamides” (Bristol-Myers Company, priority 1987, dated 1989).

Legend:
[1] = molecular target: dopaminergic (D2) receptors (Rattus norvegicus, UniProt P61169); assay: biochemical; assay type: binding; conditions: striatal rat brain homogenates, ^3H-spiperone, 37° C., 15 minutes; read-out: 3H-Spiperone Displacement IC50
Procedure: Rats (150±10 g; Charles River) were decapitated, the corpus striatum dissected out and frozen on dry ice. The tissues were pooled and stored at -80° C. until used. Homogenates (Brinkmann Polytron) of the corpus striatum in cold HEPES.KOH buffer (final pH=7.4) were centrifuged at 39,000×G. The supernatant was discarded and the pellets were re-suspended in HEPES.KOH buffer and re-centrifuged as above.
Tests to determine the Inhibitory Concentration50 (IC50) of the compounds of Formula I and reference compounds versus ^3 H-spiperone were conducted as follows. Tubes containing either 100 μL of buffer mixture (for total binding), 100 μL of buffer mixture plus 100 μL of 10^-4 M D(+)-butaclamol (for blanks, i.e. non-specific binding), or 100 μL of buffer mixture containing 10^-7, 10^-6 or 10^-5 M test compound were prepared. To each were added 100 μL of a solution of ^3 H-spiperone (New England Nuclear) in buffer mixture (2000 c.p.m. in the incubation mixture) and 800 μL of the striatal tissue suspension. The tubes were then diluted to 1 mL with buffer mixture, giving a final concentration of 10^-8, 10^-7 or 10^-6 M test compound and approximately 100 pM ^3 H-spiperone. The samples were incubated at 37° C. for 15 minutes, filtered in vacuo on glass fiber filters and counted by liquid scintillation spectrometry. […] All samples were run in duplicate.

[2] = tested on: Apomorphine-Induced Emesis; assay: Antagonism of Apomorphine-Induced Emesis in Dogs; assay type: in vivo, beagle dogs; conditions: Canis lupus familiaris, sc; s.c. 30 minutes prior to apomorphine 0.3 mg/kg; dog; read-out: Antagonism of Apomorphine-Induced Emesis in the Dog ED50
Procedure: Unfasted beagle dogs of both sexes were used as test subjects. Test compounds and apomorphine were each administered subcutaneously as aqueous solutions, with the test compound being administered 30 minutes prior to the administration of the apormorphine.
Apomorphine was administered at a dose of 0.3 mg/kg. […] All tests were run in at least two dogs.

Cisplatin-Induced Emesis = assay: Antagonism of Cisplatin-Induced Emesis in the Ferret; assay type: in vivo, Fitch ferrets; conditions: Mustela putorius, iv, 4 h; 3 mg/kg, i.v. × 2; read-out: Antagonism of Cisplatin-Induced Emesis in the Ferret, % Protection
Excerpt: The ventral and dorsal area of the neck is shaved and a 3 cm incision is made. The left jugular vein is exposed and ligated with a silk suture at the cephalic end. The indwelling catheter is constructed of Silastic tubing 18 cm in length (0.020 inch I.D.×0.037 inch O.D.) with a 2 cm polyethylene sleeve (0.045 inch I.D.×0.062 inch O.D.) filled with heparin (1000 units/ml) and sealed at the exposed end with a 23 gauge×1 inch needle crimped at both ends. A small cut is made in the jugular and the catheter inserted, allowing the free end to be delivered through a 13 gauge×5 cm trochar under the skin and attached to the nape of the neck with a silk suture. The ferrets are housed in individual cages and allowed 2-4 days recovery before testing. On the test day, the test compounds were administered i.v. […] The cisplatin solution was prepared by adding 70° C. physiological saline, stirring and sonicating until dissolved. The resulting solution (4 mg/ml) was maintained at 40° C. and administered i.v. ([…]) via the catheter. Following administration of cisplatin, the ferrets were observed continuously for four hours and emetic episodes recorded. Two or more emetic episodes within a one-minutes period was considered as a single episode. The ferrets were euthanized with T-61 i.v. at the termination of the experiment, and proper placement of the catheter was verified.

[3] = tested on: field-stimulated guinea pig ileum; assay: Gastrokinetic Activity: contraction of field-stimulated guinea pig ileum preparations; design: species or system guinea pig (Hartley); conditions: Cavia porcellus; for EC30: effective concentration30, read-out: EC30 (95% C.L.); for EC50: effective concentration50, read-out: EC50 (95% C.L.); for minimal effective concentration: read-out: Minimum Effective Concentration
Procedure: This activity is considered to be correlated with gastrokinetic (prokinetic) activity in vivo, i.e. enhancement of gastric motility and gastric emptying.
Normal, male guinea pigs (Hartley; Charles River) weighing […] are sacrificed by cervical dislocation. The terminal portion of the ileum was removed after discarding a 10 cm segment nearest to the ileocecal junction. The strips, 3-4 cm in length, were mounted in a 20 ml organ bath containing Krebs physiological buffer solution. The buffer was bubbled with 95% O2 -5% CO2 and kept at 37° C. The resting tension was adjusted to 1.0 g, and the tissues were equilibrated without stimulation for 15 minutes. For electrical stimulation, a platinum wire (cathode) was threaded up through the lumen and another platinum wire (anode) was attached to the glass rod that suspended the muscle. Tissues were stimulated coaxially at 1.5 times the voltage necessary to produce maximum twitch height, with single pulses, 0.5 msec in duration, delivered once every 10 seconds. After the 15 minute equilibration period (without stimulation), the stimulator (Grass S88 Stimulator) was turned on and the tissues were allowed to stabilize for approximately 1 hour, or until the twitch height remained constant, with washes every 20 minutes.

[4] = read-out: Average % Maximum Increase

Chain of dopaminergic (D2) receptors (P61169 whole entry): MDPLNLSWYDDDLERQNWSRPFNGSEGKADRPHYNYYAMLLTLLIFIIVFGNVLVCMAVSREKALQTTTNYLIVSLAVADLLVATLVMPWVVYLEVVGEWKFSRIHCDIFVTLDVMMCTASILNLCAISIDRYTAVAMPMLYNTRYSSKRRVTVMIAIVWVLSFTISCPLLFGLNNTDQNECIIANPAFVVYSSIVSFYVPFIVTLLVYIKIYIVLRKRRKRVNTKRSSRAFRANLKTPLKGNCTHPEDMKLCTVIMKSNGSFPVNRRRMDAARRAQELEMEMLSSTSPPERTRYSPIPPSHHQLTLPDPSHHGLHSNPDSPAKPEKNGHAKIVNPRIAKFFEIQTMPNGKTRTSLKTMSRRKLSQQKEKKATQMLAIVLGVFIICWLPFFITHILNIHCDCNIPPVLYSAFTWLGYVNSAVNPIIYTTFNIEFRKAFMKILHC

Row | Structure (SMILES) | IC50 [1] [nM] | EC50 [3] [nM] | ED50 [2] [mg/kg] | inhibition in vivo at 3 mg/kg (Cisplatin-Induced Emesis) [%] | activation at 10 µM [3, 4] [%] | EC30 [3] [nM] | minimal effective concentration [3] [µM] | activation at 30 µM [3, 4] [%] | activation at 100 µM ([3]; at 100 μM, read-out: Average % Maximum Increase) [%] | activation at 300 µM ([3]; at 300 μM, read-out: Average % Maximum Increase) [%]
1 | CCN(CC)CCNC(=O)c1cc(Cl)c(N)cc1OCC(=O)N1CCCC1 [Example 59, 4-Amino-5-chloro-N-[2-(diethylamino)ethyl]-2-[2-(1-pyrrolidinyl)-2-oxoethoxy]benzamide] | > 1000 | 20000 | > 3 | 66 | 38 | 5200 | 1 |  |  | 
2 | CCN(CC)CCNC(=O)c1cc(Cl)c(N)cc1OCC(N)=O [Example 16, 4-Amino-2-(2-amino-2-oxoethoxy)-5-chloro-N-[2-(diethylamino)ethyl]benzamideAcetate Monohydrate] | > 1000 | 3700 | > 3 | 21 |  | 500 | 0.03 |  | 72 | 
3 | CCN(CC)CCNC(=O)c1cc(Cl)c(N)cc1OCC(=O)NNC(C)=O [Example 37, 4-Amino-5-chloro-N-[2-(diethylamino)ethyl]-2-[2-(2-acetylhydrazino)-2-oxoethoxy]benzamide Acetate] | > 1000 | 6600 | > 3 | 57 |  | 720 |  |  |  | 83
4 | CCN(CC)CCNC(=O)c1cc(Cl)c(N)cc1OCC(=O)NC [Example 40] | > 1000 | 5500 | > 3 | 62 | 56 | 900 | 0.1 |  |  | 
5 | CCN(CC)CCNC(=O)c1cc(Cl)c(N)cc1OCC(=O)NN.O.O.O [Example 36, 4-Amino-5-chloro-N-[2-(diethylamino)ethyl]-2-(2-hydrazino-2-oxoethoxy)benzamide Trihydrate] | > 1000 | 4600 | > 3 | 86 | 55 | 500 | 0.1 |  |  | 
6 | CCN(CC)CCNC(=O)c1cc(Cl)c(N)cc1OCCNC(C)=O [Example 48] | > 1000 | 13000 | > 3 | 47 | 47 | 2300 | 0.1 |  |  | 
7 | CO[C@@H]1CN(CCCOc2ccc(F)cc2)CC[C@@H]1NC(=O)c1cc(Cl)c(N)cc1OCC(N)=O (relative stereo) [Example 62, Cis-4-amino-2-(2-amino-2-oxoethoxy)-5-chloro-N-{1-[3-(4-fluorophenoxy)propyl]-3-methoxy-4-piperidinyl}benzamide sesquihydrate] | > 1000 |  | > 3 | 71 |  |  |  |  |  | 
8 | CCN(CC)CCNC(=O)c1cc(Cl)c(N)cc1OCCCC(=O)N(CC)CC [Example 56, 4-Amino-5-chloro-N-[2-(diethylamino)ethyl]-2-(4-diethylamino-4-oxobutoxy)benzamide] | > 1000 | 7300 | > 3 | 81 |  | 1100 | 0.1 | 59 |  | 

Continued, in another order:

Row | IC50 [1] [nM] | EC50 [3] [nM] | Structure (SMILES) | ED50 [2] [mg/kg] | inhibition in vivo at 3 mg/kg (Cisplatin-Induced Emesis) [%] | activation at 10 µM [3, 4] [%] | EC30 [3] [nM] | minimal effective concentration [3] [µM] | activation at 30 µM [3, 4] [%] | activation at 100 µM ([3]; at 100 μM, read-out: Average % Maximum Increase) [%] | activation at 300 µM ([3]; at 300 μM, read-out: Average % Maximum Increase) [%]
9 | > 1000 | 39000 | CCN(CC)CCNC(=O)c1cc(Cl)c(N)cc1OCCC[S+](C)[O-] (stereo not shown) [Example 50, 4-Amino-5-chloro-N-[2-(diethylamino)ethyl]-2-[3-(methylsulfinyl)propoxy]benzamide] | > 3 | 62 |  | 12000 | 1 | 45 |  | 
10 | > 1000 | 5600 | CCN(CC)CCNC(=O)c1cc(Cl)c(N)cc1OCCCC[S+](C)[O-] (stereo not shown) [Example 58] | > 3 | 66 |  | 1500 | 0.3 | 72 |  | 
11 | > 1000 | 2300 | CCN(CC)CCNC(=O)c1cc(Cl)c(N)cc1OCC[S+](C)[O-] (stereo not shown) [Example 21, 4-Amino-5-chloro-N-[2-(diethylamino)ethyl]-2-[2-(methylsulfinyl)ethoxy]benzamide] | > 3 | 49 |  | 570 | 0.1 | 88 |  | 
12 | > 1000 | 4800 | CCN(CC)CCNC(=O)c1cc(Cl)c(N)cc1OCC[S+]([O-])CC (stereo not shown) [Example 60] | > 3 | 52 |  | 880 | 0.1 | 66 |  | 
